How the values were obtained:
c-fms = c-fms (Homo sapiens, UniProt P07333); assay: Autophosphorylation, fluorescence polarization competition immunoassay; type: biochemical; conditions: 10 nM c-fms, 1 mM ATP, 5 mM MgCl2, 45 min; averages of three independent measurements
Protocol: The assay buffer used was 100 mM 4-(2-hydroxyethyl)piperazine 1-ethanesulfonic acid (HEPES), pH 7.5, 1 mM 1,4-dithio-DL-threitol (DTT), 0.01% (v/v) Tween-20. Compounds were diluted in assay buffer containing 4% dimethylsulfoxide (DMSO) just prior to the assay. […] The kinase reaction was initiated by adding 2 μL of 5 mM ATP (Sigma) in assay buffer. The final concentrations in the assay were 10 nM c-fms, 1 mM ATP, 5 mM MgCl2, 2% DMSO. Control reactions were ran in each plate: in positive and negative control wells, assay buffer (made 4% in DMSO) was substituted for the compound; in addition, positive control wells received 1.2 μL of 50 mM ethylenediaminetetraacetic acid (EDTA).
At the end of the incubation, the reaction was quenched with 1.2 μL of 50 mM EDTA (EDTA was not added to the positive control wells at this point; see above). Following a 5-min incubation, each well received 10 μL of a 1:1:3 mixture of anti-phosphotyrosine antibody, 10×, PTK green tracer, 10× (vortexed), FP dilution buffer, respectively (all from PanVera, cat. # P2837). The plate was covered, incubated for 30 min at room temperature and the fluorescence polarization was read on the Analyst.
The IC50 values shown in Table 1 are averages of three independent measurements.

CSF-1R = CSF-1R (Homo sapiens, UniProt P07333); assay: Peptide (non-phosphorylated) assay, fluorescence polarization competition immunoassay; type: biochemical; conditions: 0.7 nM CSF-1R, 308 μM SYEGNSYTFIDPTQ peptide, 1 mM ATP, 80 min; mean of at least three determinations; read-out: c-fms Peptide IC50
Sequence of CSF-1R (P07333 20-972): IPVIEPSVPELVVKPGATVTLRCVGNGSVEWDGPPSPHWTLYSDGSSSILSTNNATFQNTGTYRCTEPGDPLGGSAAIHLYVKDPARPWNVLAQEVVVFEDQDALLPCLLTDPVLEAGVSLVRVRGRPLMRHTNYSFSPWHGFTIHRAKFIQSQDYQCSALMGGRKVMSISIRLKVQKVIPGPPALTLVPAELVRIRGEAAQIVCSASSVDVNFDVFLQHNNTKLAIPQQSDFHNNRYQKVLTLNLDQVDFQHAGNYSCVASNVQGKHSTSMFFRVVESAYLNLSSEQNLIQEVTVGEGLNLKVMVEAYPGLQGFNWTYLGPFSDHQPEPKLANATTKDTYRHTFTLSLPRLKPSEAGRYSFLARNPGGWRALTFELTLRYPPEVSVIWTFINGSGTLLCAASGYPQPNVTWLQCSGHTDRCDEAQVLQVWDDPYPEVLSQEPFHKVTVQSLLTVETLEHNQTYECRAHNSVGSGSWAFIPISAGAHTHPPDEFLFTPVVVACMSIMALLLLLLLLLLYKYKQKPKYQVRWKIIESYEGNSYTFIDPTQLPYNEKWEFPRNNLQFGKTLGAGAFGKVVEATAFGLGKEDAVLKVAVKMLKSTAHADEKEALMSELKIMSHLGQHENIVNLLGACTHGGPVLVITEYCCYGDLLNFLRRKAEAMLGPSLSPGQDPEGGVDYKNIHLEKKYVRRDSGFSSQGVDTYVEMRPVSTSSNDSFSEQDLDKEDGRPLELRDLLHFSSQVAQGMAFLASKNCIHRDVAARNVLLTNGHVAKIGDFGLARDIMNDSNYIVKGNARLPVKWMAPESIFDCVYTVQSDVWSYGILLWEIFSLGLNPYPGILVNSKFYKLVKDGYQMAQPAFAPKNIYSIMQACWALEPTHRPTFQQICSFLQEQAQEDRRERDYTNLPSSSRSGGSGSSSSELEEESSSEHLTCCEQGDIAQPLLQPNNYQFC
Method in brief: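 Read-out is fluorescence polarization: after EDTA quench, anti-phosphotyrosine antibody plus PTK green tracer compete with the phosphorylated peptide for 30 min. The CSF-1R reaction itself ran 80 min at room temperature after ATP addition. DMSO (4%) wells served as controls, positive controls pre-treated with EDTA.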

Sequence of c-fms (P07333 20-972): as above

SMILES | IC50 (c-fms) [nM] | IC50 (CSF-1R) [nM]
CNC(=O)c1cn(-c2ccc3c(c2)CCC3)c2nc(Nc3cccc(C(=O)N4CCCCC4)c3)ncc2c1=O [Cpd 113, 8-indan-5-yl-5-oxo-2-[3-(piperidine-1-carbonyl)-phenylamino]-5,8-dihydro-pyrido[2,3-d]pyrimidine-6-carboxylic acid methylamide] | > 1000 | –
NC(=O)c1cn(-c2ccc3c(c2)CCC3)c2nc(Nc3ccc(CN4CCCCC4)cc3)ncc2c1=O [Cpd 119, 8-indan-5-yl-5-oxo-2-(4-piperidin-1-ylmethyl-phenylamino)-5,8-dihydro-pyrido[2,3-d]pyrimidine-6-carboxylic acid amide] | 2.6 | –
CCc1ccc(-n2cc(C(=O)NOC3CCCC3)c(=O)c3cnc(Nc4ccc(CCN5CCN(C)CC5)cc4)nc32)cc1 [Cpd 92, 8-(4-ethyl-phenyl)-2-{4-[2-(4-methyl-piperazin-1-yl)-ethyl]-phenylamino}-5-oxo-5,8-dihydro-pyrido[2,3-d]pyrimidine-6-carboxylic acid cyclopentyloxy-amide] | – | 4.9
CCc1ccc(-n2cc(C(=O)NOC)c(=O)c3cnc(Nc4ccc5c(ccn5C)c4)nc32)cc1 [Cpd 290, 8-(4-ethyl-phenyl)-2-(1-methyl-1H-indol-5-ylamino)-5-oxo-5,8-dihydro-pyrido[2,3-d]pyrimidine-6-carboxylic acid methoxy-amide] | – | 0.9
